Reference: patent US20230045629A1, “TREATMENT OF PROGRESSIVE SUPRANUCLEAR PALSY” (NATIONAL UNIVERSITY CORPORATION TOKAI NATIONAL HIGHER …, priority 2020, published 2023)

Tested on: AT8-positive phosphorylated tau
Assay: Actin polymerization inhibitor on phosphorylated tau in primary cortical neurons from fetal mouse brain electroporated in utero with FLNA, fluorescent immunostaining
Type: cell-based
Settings: wild-type FLNA introduced at E14, primary cortical neurons collected at E15, 2 DIV; compared with 0.1% DMSO (control)
Excerpt: FIG. 17-2: Continued from FIG. 17. (b): Each plasmid was introduced into a fetal mouse brain in a mouse at 14 days of gestation (E14) by in utero electroporation, and primary cortical neurons were collected at 15 days of gestation (E15), followed by 2-day cell culture (2 DIV) and then fluorescent immunostaining. At the time of administration of 0.1% DMSO (control), the expression level of AT8-positive phosphorylated tau was increased because of wild-type FLNA (FLNA^WT) but not at the time of administration of an actin polymerization inhibitor cytochalasin D (CytoD). The multiple asterisks “***” indicate a Tukey's test P value of less than 0.001.
The FLNA gene was induced into the brain of a fetal mouse in a mouse at 14 days of gestation (E14).

SMILES: C=C1[C@@H](C)[C@H]2[C@H](Cc3ccccc3)NC(=O)[C@]23[C@H](OC(C)=O)/C=C/[C@@](C)(O)C(=O)[C@@H](C)C/C=C/[C@H]3[C@@H]1O [cytochalasin D (CytoD)]
- expression level of AT8-positive phosphorylated tau: did not cause an increase
